Legend:
MAP4K4 (HGK) = MAP4K4 (HGK) (Homo sapiens, UniProt O95819); test: HGK biochemical assay (AlphaScreen); conditions: 10 μM ATP
Procedure: Substrate was 10 nM biotin-ERM (T567/T564/T558, Cell Signaling, Inc., cat#1344). MAP4K4 kinase was at 0.5 ng per sample.

c-kit = c-kit (Homo sapiens, UniProt P10721); test: c-kit assays of Examples 40 and 41 (AlphaScreen kinase assays at 10 and 100 μM ATP, 33P-ATP filter assay, M-07e SCF-stimulated proliferation and phosphorylation)
Chain of c-kit (P10721 with tags, fused parts or gaps): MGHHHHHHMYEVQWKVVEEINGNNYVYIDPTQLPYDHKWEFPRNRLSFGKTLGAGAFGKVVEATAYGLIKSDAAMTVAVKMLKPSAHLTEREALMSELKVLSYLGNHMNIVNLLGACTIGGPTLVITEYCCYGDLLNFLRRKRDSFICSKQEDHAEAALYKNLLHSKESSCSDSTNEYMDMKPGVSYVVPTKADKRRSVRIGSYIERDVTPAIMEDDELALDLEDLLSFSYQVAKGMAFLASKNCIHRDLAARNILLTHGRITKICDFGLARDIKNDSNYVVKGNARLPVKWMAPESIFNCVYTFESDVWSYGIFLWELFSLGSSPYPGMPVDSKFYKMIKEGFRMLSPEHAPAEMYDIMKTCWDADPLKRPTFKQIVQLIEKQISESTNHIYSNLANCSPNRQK

Chain of MAP4K4 (HGK) (O95819 whole entry): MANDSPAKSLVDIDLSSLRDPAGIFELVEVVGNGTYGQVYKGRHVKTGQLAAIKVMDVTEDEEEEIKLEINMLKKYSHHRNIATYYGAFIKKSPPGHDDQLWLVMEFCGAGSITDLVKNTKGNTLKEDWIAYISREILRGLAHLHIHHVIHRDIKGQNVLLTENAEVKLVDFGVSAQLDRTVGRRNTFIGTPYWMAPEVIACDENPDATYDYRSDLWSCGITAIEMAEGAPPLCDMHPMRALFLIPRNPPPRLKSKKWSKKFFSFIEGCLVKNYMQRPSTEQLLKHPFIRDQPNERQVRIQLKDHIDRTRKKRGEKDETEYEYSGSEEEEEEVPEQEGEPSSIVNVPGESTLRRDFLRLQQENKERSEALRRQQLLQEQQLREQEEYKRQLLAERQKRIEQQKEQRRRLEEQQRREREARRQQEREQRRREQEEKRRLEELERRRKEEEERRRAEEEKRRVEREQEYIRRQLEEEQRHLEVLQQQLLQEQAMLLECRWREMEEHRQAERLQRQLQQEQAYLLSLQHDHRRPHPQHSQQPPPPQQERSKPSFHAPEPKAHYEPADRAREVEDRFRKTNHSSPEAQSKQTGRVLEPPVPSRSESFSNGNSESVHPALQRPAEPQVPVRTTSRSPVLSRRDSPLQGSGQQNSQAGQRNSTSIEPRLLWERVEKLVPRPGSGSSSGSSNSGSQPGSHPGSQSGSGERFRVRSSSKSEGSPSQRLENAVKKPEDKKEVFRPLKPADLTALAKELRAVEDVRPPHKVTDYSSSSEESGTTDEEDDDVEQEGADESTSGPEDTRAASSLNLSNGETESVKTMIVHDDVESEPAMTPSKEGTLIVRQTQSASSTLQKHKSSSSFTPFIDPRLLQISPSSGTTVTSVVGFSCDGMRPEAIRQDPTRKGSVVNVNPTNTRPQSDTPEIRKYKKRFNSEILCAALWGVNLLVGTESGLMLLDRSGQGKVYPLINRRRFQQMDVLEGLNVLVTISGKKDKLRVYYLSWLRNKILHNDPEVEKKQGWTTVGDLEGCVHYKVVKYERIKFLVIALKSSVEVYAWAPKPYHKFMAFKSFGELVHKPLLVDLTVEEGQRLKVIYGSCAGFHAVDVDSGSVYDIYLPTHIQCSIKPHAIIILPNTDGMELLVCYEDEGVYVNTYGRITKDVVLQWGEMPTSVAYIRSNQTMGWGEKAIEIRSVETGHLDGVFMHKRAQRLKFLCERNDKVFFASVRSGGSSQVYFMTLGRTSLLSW

| Structure (SMILES) | IC50 (MAP4K4 (HGK)) [µM] | IC50 (c-kit) [µM] |
| --- | --- | --- |
| O=C(c1ccc(NCc2ccccc2F)nc1)c1c[nH]c2ncccc12 [P-0403, [6-(2-fluoro-benzylamino)-pyridin-3-yl]-(1H-pyrrolo[2,3-b]pyridin-3-yl)-methanone] | < 1 |  |
| Fc1cncc(CNc2nc(Cl)c(Cc3c[nH]c4ncc(Cl)cc34)s2)c1 [P-0231, [4-Chloro-5-(5-chloro-1H-pyrrolo[2,3-b]pyridin-3-ylmethyl)-thiazol-2-yl]-(5-fluoro-pyridin-3-ylmethyl)-amine] | < 1 |  |
| COc1cncc(CNc2nc(Cl)c(Cc3c[nH]c4ncc(Cl)cc34)s2)c1 [P-0241, [4-Chloro-5-(5-chloro-1H-pyrrolo[2,3-b]pyridin-3-ylmethyl)-thiazol-2-yl]-(5-methoxy-pyridin-3-ylmethyl)-amine] | < 1 |  |
| Clc1cnc2[nH]cc(Cc3sc(NCc4cccc(N5CCOCC5)n4)nc3Cl)c2c1 [P-0252, [4-Chloro-5-(5-chloro-1H-pyrrolo[2,3-b]pyridin-3-ylmethyl)-thiazol-2-yl]-(6-morpholin-4-yl-pyridin-2-ylmethyl)-amine] |  | < 1 |
| COc1cncc(CNc2ccc(Cc3c[nH]c4ncccc34)cn2)c1 [P-0222, (5-Methoxy-pyridin-3-ylmethyl)-[5-(1H-pyrrolo[2,3-b]pyridin-3-ylmethyl)-pyridin-2-yl]-amine] |  | < 1 |
| FC(F)Oc1ccccc1CNc1ncc(Cc2c[nH]c3ncccc23)cn1 [P-0312, (2-Difluoromethoxy-benzyl)-[5-(1H-pyrrolo[2,3-b]pyridin-3-ylmethyl)-pyrimidin-2-yl]-amine] |  | < 1 |
| c1cc(CNc2ccc(Cc3c[nH]c4ncccc34)cn2)nc(N2CCOCC2)c1 [P-0228, (6-Morpholin-4-yl-pyridin-2-ylmethyl)-[5-(1H-pyrrolo[2,3-b]pyridin-3-ylmethyl)-pyridin-2-yl]-amine] |  | < 1 |
| Fc1ccc(CNc2ncc(Cc3c[nH]c4ncc(Cl)cc34)cn2)c(F)c1 [P-0265, [5-(5-Chloro-1H-pyrrolo[2,3-b]pyridin-3-ylmethyl)-pyrimidin-2-yl]-(2,4-difluoro-benzyl)-amine] |  | < 1 |
| Fc1cccc(F)c1CNc1ccc(Cc2c[nH]c3ncc(Cl)cc23)cn1 [P-0278, [5-(5-Chloro-1H-pyrrolo[2,3-b]pyridin-3-ylmethyl)-pyridin-2-yl]-(2,6-difluoro-benzyl)-amine] |  | < 1 |
| Fc1cc(CNc2ncc(Cc3c[nH]c4ncccc34)cn2)cc(C(F)(F)F)c1 [P-0294, (3-Fluoro-5-trifluoromethyl-benzyl)-[5-(1H-pyrrolo[2,3-b]pyridin-3-ylmethyl)-pyrimidin-2-yl]-amine] |  | < 1 |
| Fc1cccc(CNc2ccc(Cc3c[nH]c4ncccc34)cn2)c1 [P-0343, (3-Fluoro-benzyl)-[5-(1H-pyrrolo[2,3-b]pyridin-3-ylmethyl)-pyridin-2-yl]-amine] |  | < 1 |
| Fc1cc(C(F)(F)F)ccc1CNc1ncc(Cc2c[nH]c3ncc(Cl)cc23)cn1 [P-0394, [5-(5-Chloro-1H-pyrrolo[2,3-b]pyridin-3-ylmethyl)-pyrimidin-2-yl]-(2-fluoro-4-trifluoromethyl-benzyl)-amine] |  | < 1 |
| Cc1cc(CNc2nc(Cl)c(Cc3c[nH]c4ncccc34)s2)sc1C [P-0208, [4-Chloro-5-(1H-pyrrolo[2,3-b]pyridin-3-ylmethyl)-thiazol-2-yl]-(4,5-dimethyl-thiophen-2-ylmethyl)-amine] |  | < 1 |
| Fc1ccc(C(F)(F)F)cc1CNc1ncc(Cc2c[nH]c3ncc(Cl)cc23)cn1 [P-0289, [5-(5-Chloro-1H-pyrrolo[2,3-b]pyridin-3-ylmethyl)-pyrimidin-2-yl]-(2-fluoro-5-trifluoromethyl-benzyl)-amine] |  | < 1 |
| COc1cnc2[nH]cc(Cc3ccc(NCc4ccc(OC)nc4)nc3)c2c1 [P-0332, (6-Methoxy-pyridin-3-ylmethyl)-[5-(5-methoxy-1H-pyrrolo[2,3-b]pyridin-3-ylmethyl)-pyridin-2-yl]-amine] |  | < 1 |
| Clc1cccc(CNc2ccc(Cc3c[nH]c4ncccc34)cn2)c1Cl [P-0351, (2,3-Dichloro-benzyl)-[5-(1H-pyrrolo[2,3-b]pyridin-3-ylmethyl)-pyridin-2-yl]-amine] |  | < 1 |
| Fc1cccc(CNc2ncc(Cc3c[nH]c4ncc(Cl)cc34)cn2)c1F [P-0395, [5-(5-Chloro-1H-pyrrolo[2,3-b]pyridin-3-ylmethyl)-pyrimidin-2-yl]-(2,3-difluoro-benzyl)-amine] |  | < 1 |
| FC(F)(F)c1ccc(CNc2ncc(Cc3c[nH]c4ncc(Cl)cc34)cn2)cc1 [P-0266, [5-(5-Chloro-1H-pyrrolo[2,3-b]pyridin-3-ylmethyl)-pyrimidin-2-yl]-(4-trifluoromethyl-benzyl)-amine] |  | < 1 |
| FC(F)(F)c1ccc(CNc2ccc(Cc3c[nH]c4ncccc34)c(Cl)n2)cn1 [P-0174, [6-Chloro-5-(1H-pyrrolo[2,3-b]pyridin-3-ylmethyl)-pyridin-2-yl]-(6-trifluoromethyl-pyridin-3-ylmethyl)-amine] |  | < 1 |
| FC(F)(F)COc1ccc(CNc2ccc(Cc3c[nH]c4ncc(Cl)cc34)cn2)cn1 [P-0409, [5-(5-Chloro-1H-pyrrolo[2,3-b]pyridin-3-ylmethyl)-pyridin-2-yl]-[6-(2,2,2-trifluoro-ethoxy)-pyridin-3-ylmethyl]-amine] |  | < 1 |
| CN(C)CCCOc1ccccc1CNc1ccc(Cc2c[nH]c3ncccc23)cn1 [P-0369, [2-(3-Dimethylamino-propoxy)-benzyl]-[5-(1H-pyrrolo[2,3-b]pyridin-3-ylmethyl)-pyridin-2-yl]-amine] |  | < 1 |
| CCCS(=O)(=O)Nc1ccc(F)c(CNc2ccc(Cc3c[nH]c4ncccc34)cn2)c1F [P-0258, propane-1-sulfonic acid (2,4-difluoro-3-[5-(1H-pyrrolo[2,3-b]pyridin-3-ylmethyl)-pyridin-2-ylamino]-methyl-phenyl)-amide] |  | < 1 |
| Cc1nn(C(=O)NCc2ccc(Cl)cc2)c(C)c1Cc1c[nH]c2ncc(Cl)cc12 [P-0159, 4-(5-Chloro-1H-pyrrolo[2,3-b]pyridin-3-ylmethyl)-3,5-dimethyl-pyrazole-1-carboxylic acid 4-chloro-benzylamide] |  | < 1 |
| COc1ccccc1CNc1ccc(Cc2c[nH]c3ncccc23)cn1 [P-0336, (2-Methoxy-benzyl)-[5-(1H-pyrrolo[2,3-b]pyridin-3-ylmethyl)-pyridin-2-yl]-amine] |  | < 1 |
| COc1cncc(CNc2nc(Cl)c(Cc3c[nH]c4ncccc34)s2)c1 [P-0207, [4-Chloro-5-(1H-pyrrolo[2,3-b]pyridin-3-ylmethyl)-thiazol-2-yl]-(5-methoxy-pyridin-3-ylmethyl)-amine] | < 1 |  |

More lines, now with the values ahead:

| IC50 (MAP4K4 (HGK)) [µM] | IC50 (c-kit) [µM] | Structure (SMILES) |
| --- | --- | --- |
|  | < 1 | N#Cc1cnc2[nH]cc(Cc3ccc(NCc4ccc(C(F)(F)F)nc4)nc3)c2c1 [P-0273, 3-{6-[(6-Trifluoromethyl-pyridin-3-ylmethyl)-amino]-pyridin-3-ylmethyl}-1H-pyrrolo[2,3-b]pyridine-5-carbonitrile] |
|  | < 1 | COc1ccc(CNc2ccc(Cc3c[nH]c4ncccc34)cn2)cn1 [P-0219, (6-Methoxy-pyridin-3-ylmethyl)-[5-(1H-pyrrolo[2,3-b]pyridin-3-ylmethyl)-pyridin-2-yl]-amine] |
|  | < 1 | COc1ccccc1CNc1ccc(Cc2c[nH]c3ncc(C#N)cc23)cn1 [P-0337, 3-[6-(2-Methoxy-benzylamino)-pyridin-3-ylmethyl]-1H-pyrrolo[2,3-b]pyridine-5-carbonitrile] |
|  | < 1 | Cc1cc(CNc2ccc(Cc3c[nH]c4ncccc34)cn2)nn1C [P-0131, (1,5-Dimethyl-1H-pyrazol-3-ylmethyl)-[5-(1H-pyrrolo[2,3-b]pyridin-3-ylmethyl)-pyridin-2-yl]-amine] |
|  | < 1 | COc1cccc(C(=O)Nc2ccc(Cc3c[nH]c4ncccc34)cn2)c1 [P-0120, 3-Methoxy-N-[5-(1H-pyrrolo[2,3-b]pyridin-3-ylmethyl)-pyridin-2-yl]-benzamide] |
|  | < 1 | Fc1ccc(CNc2ncc(Cc3c[nH]c4ncc(Cl)cc34)cn2)c(Cl)c1 [P-0396, (2-Chloro-4-fluoro-benzyl)-[5-(5-chloro-1H-pyrrolo[2,3-b]pyridin-3-ylmethyl)-pyrimidin-2-yl]-amine] |
|  | < 1 | Fc1c(Cl)cccc1CNc1ncc(Cc2c[nH]c3ncc(Cl)cc23)cn1 [P-0392, (3-Chloro-2-fluoro-benzyl)-[5-(5-chloro-1H-pyrrolo[2,3-b]pyridin-3-ylmethyl)-pyrimidin-2-yl]-amine] |
|  | < 1 | Fc1cc(CNc2ccc(Cc3c[nH]c4ncccc34)cn2)cc(C(F)(F)F)c1 [P-0346, (3-Fluoro-5-trifluoromethyl-benzyl)-[5-(1H-pyrrolo[2,3-b]pyridin-3-ylmethyl)-pyridin-2-yl]-amine] |
|  | < 1 | O=C(Nc1ccc(Cc2c[nH]c3ncccc23)cn1)c1ccc(F)c(Cl)c1 [P-0115, 3-Chloro-4-fluoro-N-[5-(1H-pyrrolo[2,3-b]pyridin-3-ylmethyl)-pyridin-2-yl]-benzamide] |
|  | < 1 | COc1ccc(CNc2ccc(Cc3c[nH]c4ncccc34)c(F)n2)cn1 [P-0378, [6-Fluoro-5-(1H-pyrrolo[2,3-b]pyridin-3-ylmethyl)-pyridin-2-yl]-(6-methoxy-pyridin-3-ylmethyl)-amine] |
|  | < 1 | O=C(c1ccc(Nc2cccc(O)c2)nc1)c1c[nH]c2ncccc12 [P-0027, [6-(3-Hydroxy-phenylamino)-pyridin-3-yl]-(1H-pyrrolo[2,3-b]pyridin-3-yl)-methanone] |
|  | < 1 | Fc1ccc(Cc2c[nH]c3ncccc23)c(F)n1 [P-0154, 3-(2,6-difluoro-pyridin-3-ylmethyl)-1H-pyrrolo[2,3-b]pyridine] |
|  | < 1 | CCOc1ccccc1CNc1ccc(Cc2c[nH]c3ncc(C#N)cc23)cn1 [P-0323, 3-[6-(2-Ethoxy-benzylamino)-pyridin-3-ylmethyl]-1H-pyrrolo[2,3-b]pyridine-5-carbonitrile] |
|  | < 1 | COc1cccc(CNc2ccc(Cc3c[nH]c4ncccc34)cn2)c1Cl [P-0359, (2-Chloro-3-methoxy-benzyl)-[5-(1H-pyrrolo[2,3-b]pyridin-3-ylmethyl)-pyridin-2-yl]-amine] |
